Experimental data as given in patent US7056491B2, “Monoterpenes and sesquiterpenes as chemotherapeutic and radiation sensitizers and immunomodulators” (Wisconsin Alumni Research Foundation, priority 2000, dated 2006).

Key:
[1] = system: HT29 colon cancer cells; test: Clonogenic survival assay, POH with or without radiation, HT29; format: cell-based, human
Method: (§1) Table 1 summarizing data from different cell lines treated with radiation, radiation plus POH, and POH alone. Subconfluent cultures of human glioma (T98G, M059K, U251), prostate (DU145, PC3), colon (DLD-1, HT29) and pancreatic (MIAPACA) cancer cell lines were treated with 0.1–0.5 mM of POH for 72 hours and subsequently to increasing doses of radiation from 0.1 Gy to 8.5 Gy. Control cells were treated with medium alone. The cells were harvested and an optimum number of cells were allowed to grow for 14 days. The resulting colonies were stained and counted. Each graphed point represents mean values ± SE values of triplicate dishes. Percentage survival was determined as the ratio of plating efficiencies for each irradiated group to that of the unirradiated control.

[2] = system: DU145 prostate cancer cells; test: Clonogenic survival assay, POH with or without radiation, DU145; format: cell-based, human
Method: Subconfluent cultures of prostate cancer cell line DU145 were treated with 0.1–0.5 mM of POH for 72 hours and subsequently to increasing doses of radiation from 0.1 Gy to 8.5 Gy. Control cells were treated with the indicated doses of radiation alone. The cells were harvested and an optimum number of cells were allowed to grow for 14 days. The resulting colonies were stained and counted. Each graphed point represents mean values ± SE values of triplicate dishes.
as §1

[3] = system: Fas Ligand; test: Membrane bound Fas ligand staining by flow cytometry; format: cell-based, human
Method: Referring to FIG. 17, glioma cell lines (T98G, U251, U87 and U353) were treated with 0.3 mM perillyl alcohol (POH) for 72 hours and the cells were harvested using cell dissociation solution. The resulting cell pellet was stained with biotinylated antibody specific to the human Fas-Ligand (Pharmingen), or IgG1 k isotype control for 45 minutes at 4° C. The cells were washed and incubated with streptavidin conjugated phycoerythrin washed and analyzed by flow cytometry.
The cells were harvested using cell dissociation solution, and the resulting cell pellet was washed and incubated with biotinylated anti-human antibody, which served as a control to eliminate non-specific binding. Following the primary antibody incubation the cells were washed and subsequently stained with secondary antibody conjugated to phycoerythrin (PE) (PharMingen) and antibody to CD95 directly conjugated to allophycocyanin (APC). The stained cells were analyzed using a Beckton-Dickinson FACStar plus and the results were acquired using CELLquest software.
Subconfluent cultures of the indicated glioma (T98G, U251, U353, U87MG), prostate (DU145, PC3), colon (DLD-1) and melanoma (Mel5) cell lines were treated with varying concentrations of POH (0.1 mM–1 mM POH) dissolved in medium for 72 hours. […] The stained cells were analyzed using a Beckton-Dickinson FACStar plus and the results were acquired using CELLquest. […]

[4] = system: T98G and U87MG cell lines; test: Inhibition of Fas-induced apoptosis by antagonistic antibody ZB4; format: cell-based; conditions: 1 mM POH with CH11, absence of cycloheximide; inhibited by ZB4
Method: Referring to FIG. 26, semiconfluent culture plates T98G and U87MG cell lines were treated with the 1 mM POH in the presence or absence of the anti-CD95 antibody CH11 (100 ng/ml), cycloheximide (CX), the Fas-induced apoptosis blocking antibody ZB4 (2 ug/ml) or a combination of all for a period of 72 hours. Viability analysis was carried out using propidium iodide solution by flow cytometric analysis. Each graphed point in the figure represents the average values of duplicate samples.

[5] = rats, 2% POH diet for 10 weeks; cited from earlier work

C=C(C)[C@@H]1CC=C(CO)CC1 [POH, Perillyl alcohol]
% SURVIVAL ([1]; 0.1 mM POH 72 h, no radiation): 1.060 ± 0.090% | % SURVIVAL ([1]; 0.1 mM POH + 5.5 Gy): 0.050 ± 0.005% | % SURVIVAL ([1]; 0.3 mM POH 72 h, no radiation): 0.714 ± 0.030% | % SURVIVAL ([1]; 0.3 mM POH + 5.5 Gy): 0.034 ± 0.003% | % SURVIVAL ([1]; 0.5 mM POH 72 h, no radiation): 0.400 ± 0.010% | % SURVIVAL ([1]; 0.5 mM POH + 5.5 Gy): 0.006 ± 0.002% | % SURVIVAL ([2]; 0.1 mM POH 72 h, no radiation): 0.648 ± 0.008% | % SURVIVAL ([2]; 0.1 mM POH + 5.5 Gy): 0.044 ± 0.00157% | % SURVIVAL ([2]; 0.3 mM POH 72 h, no radiation): 0.456 ± 0.0112% | % SURVIVAL ([2]; 0.3 mM POH + 5.5 Gy): 0.026 ± 0.00076% | % SURVIVAL ([2]; 0.5 mM POH 72 h, no radiation): 0.207 ± 0.005% | % SURVIVAL ([2]; 0.5 mM POH + 5.5 Gy): 0.017 ± 0.005% | Fas Ligand in glioma, prostate, colon and melanoma cell lines ([3]; 0.1 mM–1 mM POH 72 hours, more pronounced at lower concentrations): upregulation of the Fas Ligand | membrane bound Fas ligand on glioma cell lines ([3]; T98G, U251, U87, U353, 0.3 mM POH 72 hours): upregulation | Fas-mediated apoptosis [4]: augmented Fas-mediated apoptosis | plasma levels of terpene metabolites [5]: 820 µM
